Measured values published in patent publication US7759313B2, “Induction method for cell differentiation” (Obschetstvo S Ogranichennoi Otvetstvennostiyu …, priority 2002, dated 2010).
Where “and” joins values, the source holds several entries; their conditions need not be identical. Identical values can stand only once. Marks after values point to notes of the source that are not given here.

Experiments:
Friend erythroblastosis [1] = experiment: Friend erythroblastosis, histological examination; format: in vivo, mice
Procedure: Friend erythroblastosis which was inoculated subcutaneously to DBA2 female mice via spleen cells was investigated.
Group 2—Reaferon at dose 100 thousand IU/kg was administered daily s.c. from day 3 to day 7 after inoculation;
Group 3—Dicarbamine at a single dose 4.5 mg/kg was administered p.o. from day 3 to day 7 after inoculation;
Group 4—Dicarbamine and Reaferon were administered simultaneously according to a similar scheme.
Material for light microscopy was taken from sacrificed animals at days 3, 7 and 14 after termination of therapy or administration of a physiological saline. Material for electronic microscopy was taken at days 7 and 14.
For histological examination, tumor pieces were fixed in 10% neutral formalin and imbedded into paraffin; slices obtained were stained with hematoxylin-eosin and examined for glycogen (polysaccharide) content using the periodic acid Schiff reaction, for RNA content according to Brachet, and for lipids and iron. Slices were examined and photographed using a Polivar light microscope (Austria).
The percentage of mitoses and cells with apoptosis, as well as areas of necrosis, were assessed during histological examination.

M-6 melanoma = experiment: Melanin genesis intensity in M-6 melanoma cells (electronic microscopy); format: in vivo, human; details: for Average amount of melanosomes per a cell / MGII / Number of cells with melanosomes (per 500 cells): 1.0 mg/kg daily
Procedure: The study was conducted on 10-12 week old thymus free (nude) female Balb/C mice weighing 20-22 grams (breeding of the Russian Cancer Research Center (RCRC) named after N. N. Blokhin of the Russian Academy of Medical Sciences (RAMS)). A human melanoma strain earlier obtained from primary clinical material was taken from the bank of tumor strains of the RCRC of the RAMS for transplantation to thymus free “nude” mice. Tumor was disintegrated by Versen solution with vital Trypan blue staining and inoculated subcutaneously to mice in the amount of 1.6 million cells per mouse.
Dicarbamine was administered to mice intragastrically using a metal probe daily at dose 1.0 mg/kg beginning 4 days before the tumor inoculation and thereafter for 10-11 days (administration course up to 15 days). The mice were sacrificed with ether anesthesia in 12, 24 and 48 hours after the last administration.
The effect of Dicarbamine on melanoma cell differentiation was assessed on the basis of the intensity of melanin genesis by counting the number of cells with melanin in the tumor slices. With this goal, tumors were excised from the mice, placed into glutaraldehyde and histologically processed for electronic microscopy. The Melanin Genesis Intensity Index (MGII), which reflects the degree of cell differentiation, was calculated in the prepared slices according to the following equation: MGII=NCM×NM,
wherein: NCM is the number of cells containing melanosomes;
NM is average number of melanosomes per a cell.

[2] = test system: murine B-16 melanoma cells; experiment: Initial rate of cell proliferation (IRCP), B-16 cells; format: cell-based
Procedure: The study was conducted on two continuous cell cultures growing in the form of a monolayer in a tissue culture (on murine B-16 melanoma cells and human M-5 melanoma cells). IN was administered at concentrations 70-700 IU/ml. Dicarbamine (D) was transferred into stock solution (1.000 μM), sterilized through filters with 0.22 μm pore diameter and then diluted to concentrations 0.01 and 1.0 μM.
The effect of preparations on cells was assessed on the basis of initial rate of cell proliferation (IRCP). This index (IRCP), which is usually called colony rate growth, was determined by numbering the number of cells in micro colonies during the first days following affection in “test” (with preparations) and “control” (without preparations) dishes, by analyzing 50 colonies in each of them. Each “point” included […] three Petri dishes with growing cell colonies in adding specific concentrations of preparations under study. Growth rate of colonies (in %) was calculated according to the formula: […]
Cell numbers in micro colonies were calculated for every “point”. Toxicity of preparations in the selected range of concentrations was judged by cell survival, which was determined by the ratio between numbers of the colonies grown in “test” and “control” dishes.

Friend erythroblastosis [3] = experiment: Subcutaneously inoculated Friend erythroblastosis growth; format: in vivo, mice
Procedure: The studies were conducted on male mice hybrid 100 BDF1 that were divided into groups containing 10 mice each. Lineal DBA2 mice were used for passaging FEB in vivo.
A strain of Friend erythroblastosis was obtained from the bank of tumor strains of the GU RCRC named after N. N. Blokhin of the RAMS. It was twice passaged intraperitoneally using generations 3-8 in subcutaneous inoculation. The inoculation was done using a cellular suspension of 1×10^6 cells in 0.3 ml […].
Solutions of the tested compounds were intra-gastrically daily administered to mice using a probe from day 3 to day 7 after tumor inoculation.
Therapeutic efficacy was assessed on the basis of tumor growth inhibition (TGI, %) and an average life span (ALS). Increase in life span was determined by the commonly accepted criterion T/C (%), which was calculated as a ratio between ALS in the test and control groups. Tumor growth rate Vt/V1 was calculated on the basis of change growth in average tumor volumes.

[4] = Dicarbamine 4.5 mg/kg p.o. days 3-7
[5] = 1.5 mg/kg daily for 5 days, day 8
[6] = 1.5 mg/kg daily for 5 days, day 13
[7] = 1.5 mg/kg daily for 5 days, day 19
[8] = 4.5 mg/kg daily for 5 days, day 8
[9] = 4.5 mg/kg daily for 5 days, day 13
[10] = 4.5 mg/kg daily for 5 days, day 19

How did the Apoptosis (Friend erythroblastosis [1]; Dicarbamine 4.5 mg/kg p.o. + Reaferon 100 thousand IU/kg s.c., day 3) turn out when O=C(O)CCCC(=O)NCCc1c[nH]cn1 [Dicarbamine] was run?
The Apoptosis was 0.2-0.5%.

And the “area of necrosis as compared to group I (control)” value (Friend erythroblastosis [1]; [4])?
Its value is “did not significantly change”.

What about the “mitotic activity as compared to the control” value (Friend erythroblastosis [1]; [4]) of the same molecule?
Its value is “remained within the limits of the control figures”.

What about the “area of necrosis and mitotic activity as compared to group II (Reaferon)” value (Friend erythroblastosis [1]; Dicarbamine + Reaferon) of the same molecule?
Its value is “did not show significant shifts”.

What about the Apoptosis (Friend erythroblastosis [1]; Dicarbamine + Reaferon, days 7 and 14) of the same molecule?
The Apoptosis was 0.5%.

And the “Average amount of melanosomes per a cell” value (M-6 melanoma; 12 hours since withdrawal)?
Its value is 28.0.

And the MGII (M-6 melanoma; 12 hours since withdrawal)?
The MGII was 9.8.

And the “Number of cells with melanosomes (per 500 cells)” value (shortened to “Number of cells … (per 500 cells)”) (M-6 melanoma; 12 hours since withdrawal)?
The value was 175.0.

And the “Average amount of melanosomes per a cell” value (M-6 melanoma; 24 hours since withdrawal)?
The value was 35.0.

What about the MGII (M-6 melanoma; 24 hours since withdrawal) of the same molecule?
The MGII was 14.7.

What about the “Number of cells … (per 500 cells)” value (M-6 melanoma; 24 hours since withdrawal) of the same molecule?
Its value is 210.0.

What about the “Average amount of melanosomes per a cell” value (M-6 melanoma; 48 hours since withdrawal) of the same molecule?
The value was 42.0.

What about the MGII (M-6 melanoma; 48 hours since withdrawal) of the same molecule?
Its MGII is 19.0.

What about the “Number of cells … (per 500 cells)” value (M-6 melanoma; 48 hours since withdrawal) of the same molecule?
The value was 227.0.

What about the “average increase of M-6 melanoma tumor cell differentiation degree (MGII)” value (M-6 melanoma; following a 15 day course) of the same molecule?
The value was 2.2 fold.

What about the “increase in the number of cells comprising melanosomes” value (M-6 melanoma; following a 15 day course) of the same molecule?
Its value is 1.3 fold.

What about the “increase in the number of melanosomes” value (M-6 melanoma; following a 15 day course) of the same molecule?
Its value is 1.3 fold.

What about the “MGII index increase vs control” value (M-6 melanoma; in 12 hours) of the same molecule?
Its value is 1.9 fold.

And the “MGII index increase vs control” value (M-6 melanoma; in 24 hours)?
Its value is 2.4 fold.

What about the “MGII index increase vs control” value (M-6 melanoma; in 48 hours) of the same molecule?
Its value is 2.3 fold.

What about the “toxicity according to the survival index” value ([2]; B-16 cells) of the same molecule?
The value was “does not show toxicity”.

And the “Initial rate of cell proliferation” value ([2]; D 0.01 μM, 48 hours)?
Its value is 52.9%.

What about the “Initial rate of cell proliferation” value ([2]; D 0.01 μM, 72 hours) of the same molecule?
The value was 61.0%.

And the “Initial rate of cell proliferation” value ([2]; D 1.0 μM, 48 hours)?
The value was 44.6%.

And the “Initial rate of cell proliferation” value ([2]; D 1.0 μM, 72 hours)?
The value was 44.6% and 43.6%.

What about the “Initial rate of cell proliferation” value ([2]; IN 70.0 IU/ml + D 1.0 μM, 72 hours) of the same molecule?
Its value is 26.1%.

And the “Initial rate of cell proliferation” value ([2]; IN 700.0 IU/ml + D 0.01 μM, 48 hours)?
The value was 24.9%.

What about the “Initial rate of cell proliferation” value ([2]; IN 700.0 IU/ml + D 0.01 μM, 72 hours) of the same molecule?
Its value is 22.0%.

And the “Initial rate of cell proliferation” value ([2]; IN 700.0 IU/ml + D 1.0 μM, 48 hours)?
The value was 21.5%.

What about the “Initial rate of cell proliferation” value ([2]; IN 700.0 IU/ml + D 1.0 μM, 72 hours) of the same molecule?
The value was 16.0%.

And the “Relative tumor volumes Vt/V1 at days after tumor inoculation” value (Friend erythroblastosis [3]; [5])?
The value was 1.0.

What about the Tumor growth inhibition (Friend erythroblastosis [3]; [5]) of the same molecule?
Its Tumor growth inhibition is 61%.

What about the “Relative tumor volumes Vt/V1” value (Friend erythroblastosis [3]; [6]) of the same molecule?
Its value is 1.56.

And the Tumor growth inhibition (Friend erythroblastosis [3]; [6])?
The Tumor growth inhibition was 78* %.

What about the “Relative tumor volumes Vt/V1” value (Friend erythroblastosis [3]; [7]) of the same molecule?
Its value is 3.0.

And the Tumor growth inhibition (Friend erythroblastosis [3]; [7])?
The Tumor growth inhibition was 55%.

What about the “Relative tumor volumes Vt/V1” value (Friend erythroblastosis [3]; [8]) of the same molecule?
Its value is 1.0.

What about the Tumor growth inhibition (Friend erythroblastosis [3]; [8]) of the same molecule?
Its Tumor growth inhibition is 62%.

What about the “Relative tumor volumes Vt/V1” value (Friend erythroblastosis [3]; [9]) of the same molecule?
Its value is 2.3.

What about the Tumor growth inhibition (Friend erythroblastosis [3]; [9]) of the same molecule?
The Tumor growth inhibition was 58%.

What about the “Relative tumor volumes Vt/V1” value (Friend erythroblastosis [3]; [10]) of the same molecule?
The value was 3.76.

What about the Tumor growth inhibition (Friend erythroblastosis [3]; [10]) of the same molecule?
Its Tumor growth inhibition is 38%.
